Test results as given in patent publication US7354920B2, “Aryl and heteroaryl morpholine derivatives” (Eli Lilly and Company, priority 2002, dated 2008).
Counter-ions that a name gives are not always drawn. Like-named read-outs stand apart in the source and are kept apart here.

Target: T1, human norepinephrine transporter (Homo sapiens, UniProt P23975)
T1 construct: isolate and amplify each of the three full-length cDNAs from an appropriate cDNA library; expressed in transfected cells; host or cells: HEK293 cells, stably transfected (pcDNA3.1-type vector); membranes used
T1 sequence (P23975 whole entry): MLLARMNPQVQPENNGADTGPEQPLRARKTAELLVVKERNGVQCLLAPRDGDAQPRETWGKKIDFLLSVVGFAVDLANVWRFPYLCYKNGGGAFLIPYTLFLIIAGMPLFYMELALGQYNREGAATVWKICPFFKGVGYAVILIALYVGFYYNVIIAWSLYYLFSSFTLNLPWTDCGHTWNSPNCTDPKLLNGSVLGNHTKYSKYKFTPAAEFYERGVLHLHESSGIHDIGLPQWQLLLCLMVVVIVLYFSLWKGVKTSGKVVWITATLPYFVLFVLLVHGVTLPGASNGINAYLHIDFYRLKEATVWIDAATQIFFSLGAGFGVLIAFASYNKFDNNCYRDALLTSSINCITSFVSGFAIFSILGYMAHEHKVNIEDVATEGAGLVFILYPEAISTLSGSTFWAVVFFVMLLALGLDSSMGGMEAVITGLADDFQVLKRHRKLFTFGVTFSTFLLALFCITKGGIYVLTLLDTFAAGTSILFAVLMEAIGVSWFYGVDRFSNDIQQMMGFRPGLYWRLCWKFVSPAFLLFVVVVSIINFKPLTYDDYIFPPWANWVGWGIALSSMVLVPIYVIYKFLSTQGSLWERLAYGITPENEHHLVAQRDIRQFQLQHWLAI
Assay: Scintillation proximity assay, [3H]-nisoxetine binding at the norepinephrine transporter

| Structure (SMILES) | Ki (scintillation proximity assay, 3H-nisoxetine, HEK-293 membranes, read-out: NET Ki) | Ki |
| --- | --- | --- |
| OC(Cc1ccccc1OC(F)(F)F)(c1ccccc1)[C@H]1CNCCO1 (stereo in doubt) [Example 5, (S,R) 1-Morpholin-2-yl-1-phenyl-2-(2-trifluoromethoxy-phenyl)-ethanol hydrochloride] | 12.4 nM |  |
| COc1ccc(F)cc1CC(O)(c1ccccc1)[C@H]1CNCCO1 (stereo in doubt) [Example 8, (S,R) 2-(5-Fluoro-2-methoxy-phenyl)-1-morpholin-2-yl-1-phenyl-ethanol hydrochloride] |  | 3.6 nM |
